Assay results reported in article PMC3974779, “Pterostilbene-Isothiocyanate Conjugate Suppresses Growth of Prostate Cancer Cells Irrespective of Androgen Receptor Status” (PLoS ONE, 2014).
Residues, ends and D or L forms follow the SMILES beside them. *: point of attachment. Cbz = O=C(OCc1ccccc1)*; CH2F = FC*

Tests used:
SRC-1 in LNCaP cells = assay: Immunoblot of AR co-activators; assay type: cell-based, human; settings: DHT treatment
Description: (§1) The whole-cell lysates were prepared as described previously in immunoprecipitation (IP) buffer containing 50 mM Tris-HCl (pH 8.0), 150 mM NaCl, 5 mM EDTA, and 1% Triton X-100. Protein aliquots of 500 μg were then incubated overnight at 4°C using 2 μg of antibody directed against AR. The Protein A-Cl Agarose beads were then added and further incubated for 6 h at 4°C. The immunoprecipitates were washed four times with the IP buffer and the immunocomplexes were recovered by boiling in SDS sample buffer. Finally the western blot was carried out using anti-AR, anti-SRC-1 and anti-GRIP-1 antibodies (Santa Cruz, CA, USA). For western blot analysis, the cell lysates were prepared after harvesting them in lysis buffer. About 40 μg of total protein was electrophoresed by 12% SDS-PAGE, and the western blotting was carried out using standard protocol. In brief, the analyzed proteins were transferred to nylon membranes. The blots were then blocked with TBST buffer (20 mM Tris-Cl, pH 7.5, 150 mM sodium chloride, 0.05% Tween-20) containing 5% skim milk powder. They were then washed with TBST buffer and incubated overnight at 4°C with the same buffer containing appropriate amounts of primary antibodies: caspase-3, Bax, Bcl-2, Akt, p-Akt, ERK, p-ERK, AR, SRC-1, GRIP-1 (1∶500) and β-actin (1∶1000). The blots were then washed and incubated with anti-rabbit secondary antibody (1∶20,000) conjugated with horseradish peroxidase (HRP). Color development was performed in the dark by using an ECL kit (Amersham, GE Healthcare, Buckinghamshire, UK). The developed blots were subjected to densitometric analysis by ImageJ 1.43 software (NIH, USA) using β-actin as internal control.

GRIP-1 in LNCaP cells = assay: Immunoblot of AR co-activators; assay type: cell-based, human; settings: DHT treatment
Description: as §1

[1] = tested on: p53 protein in LNCaP cells; assay: Immunoblot of p53 with p53 inhibitor; assay type: cell-based, human; settings: 20 μM PFT-α, 20 and 40 μM conjugate, 24 h
Description: The whole-cell lysates were prepared as described previously in immunoprecipitation (IP) buffer containing 50 mM Tris-HCl (pH 8.0), 150 mM NaCl, 5 mM EDTA, and 1% Triton X-100. Protein aliquots of 500 μg were then incubated overnight at 4°C using 2 μg of antibody directed against AR. The Protein A-Cl Agarose beads were then added and further incubated for 6 h at 4°C. The immunoprecipitates were washed four times with the IP buffer and the immunocomplexes were recovered by boiling in SDS sample buffer. Finally the western blot was carried out using anti-AR, anti-SRC-1 and anti-GRIP-1 antibodies (Santa Cruz, CA, USA). For western blot analysis, the cell lysates were prepared after harvesting them in lysis buffer. About 40 μg of total protein was electrophoresed by 12% SDS-PAGE, and the western blotting was carried out using standard protocol. In brief, the analyzed proteins were transferred to nylon membranes. […]
Since there was no significant difference in the number of apoptotic cells between conjugate treated LNCaP (wild type p53) and PC-3 (p53 null) cells (p<0.05), it was intriguing to check if p53 has any role in conjugate induced apoptosis of PCa cells. […] Next we determined the effect of p53-inhibition on conjugate induced cell death by using MTT assay.

CHO cells = assay: MTT cytotoxicity assay; assay type: cell-based; settings: Cricetulus griseus, CHO noncancer cells, 24 h exposure, read-out: IC50 value (50% growth inhibition)
Description: (§2) MTT assay was carried out as described previously. In brief, 5×10^3 cells in 200 μl of medium were seeded in 96-well plates (Griener, Germany). After 24 h, the cells were treated with various concentrations (0.1, 1, 10, 100 and 1000 μM) of RESV, PTER and conjugate. The control cells were treated with 0.1% DMSO (vehicle control). The cultured cells were assayed after 24 h by adding 20 μl of 5 mg/ml MTT followed by incubating at 37°C for 4 h. The MTT containing media was then aspirated and 200 μl DMSO (Himedia, Mumbai, India) was added to dissolve the formazone crystals. The optical density (OD) was measured at 570 nm using ELISA plate reader (Fluostar optima, BMG Labtech, Germany). The percentage inhibition was calculated as: [drawing 1]
(§3) The dose response curve and IC50 values were obtained by nonlinear regression analysis [non-linear regression (sigmoidal dose response with variable slope)] using Graph Pad Prism, version 5.02 software (Graph Pad Software Inc., CA, USA).

COS-1 cells = assay: MTT cytotoxicity assay; assay type: cell-based; settings: Chlorocebus aethiops, COS-1 noncancer cells, 24 h exposure, read-out: IC50 value (50% growth inhibition)
Description: as §2, §3

LNCaP cells [2] = assay: MTT cytotoxicity assay; assay type: cell-based; settings: Homo sapiens, 24 h, 24 h exposure, mean ± SEM, read-out: IC50 value (50% growth inhibition)
Description: as §2, §3

PC-3 cells [3] = assay: MTT cytotoxicity assay; assay type: cell-based; settings: Homo sapiens; PC-3, MTT, 24 h exposure, mean ± SEM; read-out: IC50 value (50% growth inhibition)
Description: as §2, §3

p-Akt in PC-3 cells = assay: Immunoblot of Akt phosphorylation; assay type: cell-based, human; settings: 24 h
Description: as §1
(§4) The siRNAs against human Akt and ERK and control siRNA were purchased commercially from Santa Cruz Biotechnology (USA). The LNCaP and PC-3 PCa cells were transfected with siRNAs (at a final concentration of 100 nM) using polyfect transfection reagent (Qiagen, CA, USA) according to manufacturer’s instructions. After 24 h of transfection, the cells were washed properly and replaced with fresh medium. The cells were then treated with 20 μM conjugate for 24 h, and finally protein lysates were prepared on completion of treatment. The levels of p-Akt, p-ERK and cleaved caspase-3 expressions were detected by Western blot analysis.

p-Akt in LNCaP cells = assay: Immunoblot of Akt phosphorylation; assay type: cell-based, human; settings: below 20 μM, 24 h
Description: as §1, §4

[4] = tested on: caspase-3 expression in LNCaP cells; assay: Immunoblot analysis of apoptotic markers; assay type: cell-based, human; settings: highest dose (40 μM), immunoblot densitometry
Description: as §1

[5] = tested on: caspase-3 expression in PC-3 cells; assay: Immunoblot analysis of apoptotic markers; assay type: cell-based, human; settings: PC-3, highest dose (40 μM), immunoblot densitometry
Description: as §1

[6] = tested on: caspase-3 activity in PC-3 cells; assay: Caspase colorimetric protease assay; assay type: cell-based, human; settings: PC-3, 10, 20 and 40 μM, 24 h
Description: (§5) Caspase activity was determined using ApoTarget caspase colorimetric protease assay sampler kit (KHZ1001; Invitrogen) according to the manufacturer’s instructions. Briefly, both the PCa cells were treated with increasing doses of conjugate and RESV for 24 h. The cells were then collected, washed in PBS, and lysed in 50 μl lysis buffer on ice for 10 min. After centrifugation, the supernatant containing 150 μg proteins were incubated with 200 μM of caspase-3 (Ac-DEVD-pNA), caspase-8 (Ac-IETD-pNA) and caspase-9 (Ac-LEHD-pNA) substrates respectively in reaction buffer at 37°C for 1 h in 96 well flat bottom plate. Levels of released pNA were then measured at 405 nm wavelength with ELISA plate reader (Fluostar optima, BMG Labtech, Germany). The fold-increase in caspase-3, -8, and -9 activities were determined by direct comparison to the level of un-induced control. For the caspase inhibitor assay, cells were pretreated with a synthetic pan-caspase inhibitor (Z-VAD-FMK), caspase-8 inhibitor (Z-IETD-FMK) and caspase-9 inhibitor (Z-LEHD-FMK) for 1 h before the addition of conjugate and the cell death were analyzed by MTT assay as discussed earlier.

[7] = tested on: caspase-9 activity in LNCaP cells; assay: Caspase colorimetric protease assay; assay type: cell-based, human; settings: 24 h
Description: as §5

[8] = tested on: caspase-8 activity in PC-3 cells; assay: Caspase colorimetric protease assay; assay type: cell-based, human; settings: PC-3, 24 h, high dose
Description: as §5

[9] = tested on: caspase-9 activity in PC-3 cells; assay: Caspase colorimetric protease assay; assay type: cell-based, human; settings: PC-3, 10, 20 and 40 μM, 24 h
Description: as §5

[10] = tested on: caspase-3 activity in LNCaP cells; assay: Caspase colorimetric protease assay; assay type: cell-based, human; settings: 24 h
Description: as §5

[11] = tested on: AR protein in LNCaP cells; assay: Immunoblot of AR protein; assay type: cell-based, human
Description: as §1

AR in LNCaP cells = assay: Immunofluorescence staining of endogenous AR; assay type: cell-based, human; settings: varying doses of conjugate, 20 μM RESV, DHT
Description: The cells were then incubated with AR rabbit polyclonal antibody diluted 1∶200 in blocking buffer for 1 h at RT. Finally, the cells were washed with PBS and incubated with FITC-labelled anti-rabbit secondary antibody diluted 1∶1000 in blocking buffer for 30 min at room temperature. The cells were then observed under a fluorescence microscope (Zeiss, Axiovert 25, Germany).

p-ERK in PC-3 cells = assay: Immunoblot of ERK phosphorylation; assay type: cell-based, human; settings: 24 h
Description: as §1, §4

LNCaP cells [12] = assay: Caspase inhibitor assay (conjugate-induced cell death, MTT); assay type: cell-based, human; settings: 20 μM caspase inhibitor 1 h before 20 μM conjugate, MTT after 24 h
Description: as §5
(§6) Figure 2 The conjugate induces G2/M phase arrest and caspase dependent cell death in prostate cancer cells. Cell cycle distribution of (A) PC-3 and (B) LNCaP cells upon treatment with varying doses of conjugate. Results are presented as mean ± SEM of three independent experiments. *represents statistically significant difference with respect to vehicle treated PC-3 and LNCaP cells respectively corresponding to each stage of cell cycle at p<0.05. (C) The effects of varying doses of conjugate (left panel) and resveratrol (right panel) on caspase-8, -9 and -3 activities in PC-3 and (D) LNCaP cells. Results are the mean ± SEM of three independent experiments. *represents statistically significant difference with respect to control cells for respective caspases tested at p<0.05. (E) The effect of caspase inhibitors on conjugate-induced cell death in PC-3 and (F) LNCaP cells. The cells were pre-treated with 20 μM of respective caspase inhibitors: Z-LEHDFMK (caspase-9 inhibitor); Z-IETDFMK (caspase-8 inhibitor); and Z-VAD-FMK (general caspase inhibitor) for 1 h before the addition of 20 μM conjugate. Cell death was measured 24 h after conjugate treatment using MTT assay. Data are the mean ± SEM of three independent experiments. *and # represents statistically significant difference with respect to control (vehicle) and conjugate treated cells respectively for each cell lines at p<0.05. ns, non-significant.

PC-3 cells [13] = assay: as above; assay type: cell-based, human; settings: PC-3, 20 μM caspase inhibitor 1 h before 20 μM conjugate, MTT after 24 h
Description: as §5, §6

C[C@]12CCC(=O)C[C@@H]1CC[C@@H]1[C@@H]2CC[C@]2(C)[C@@H](O)CC[C@@H]12 [DHT, dihydrotestosterone, reference compound]
increase in expression of SRC-1 (SRC-1 in LNCaP cells): 1.2 fold
change in expression of GRIP-1 (GRIP-1 in LNCaP cells): no significant change

Cc1ccc(C(=O)Cn2c3c(sc2=N)CCCC3)cc1 [PFT-α, pifithrin-α, reference compound]
expression of p53 protein [1]: significantly down regulated

COc1cc(/C=C/c2ccc(O)cc2)cc(OC)c1 [Pterostilbene]
IC50 (CHO cells): > 100 µM
IC50 (COS-1 cells): > 100 µM
IC50 (LNCaP cells [2]): ~66.4 µM
IC50 (PC-3 cells [3]): 75 ± 2.55 µM

Oc1ccc(/C=C/c2cc(O)cc(O)c2)cc1 [Resveratrol, reference compound]
decrease in level of p-Akt (p-Akt in PC-3 cells; PC-3, 20 μM): about 1.2 folds
decrease in level of p-Akt (p-Akt in PC-3 cells; PC-3, 40 μM): ~1.6 folds
effect on level of p-Akt (p-Akt in LNCaP cells): negligible effects
enhancement of caspase-3 expression [4]: 4.5 folds
enhancement of caspase-3 expression [5]: 3.5 folds
caspase-3 enzyme activity [6]: dose-dependent augmentation
caspase-9 activity [7]: significant increase
caspase-8 activity [8]: marginal increase
caspase-9 enzyme activity [9]: dose-dependent augmentation
caspase-3 activity [10]: significant increase
inhibition of AR protein levels ([11]; 10 and 20 μM, absence of DHT): did not show any significant inhibition
inhibition of DHT induced AR protein levels ([11]; till 20 μM, 10 nM DHT): did not show any significant inhibition
AR immunofluorescence intensity (AR in LNCaP cells): marginal decrease
reduction in level of p-ERK (p-ERK in PC-3 cells; PC-3, 20 μM): 1.3 folds
reduction in level of p-ERK (p-ERK in PC-3 cells; PC-3, 40 μM): 1.8 folds
IC50 (CHO cells): > 100 µM
IC50 (COS-1 cells): > 100 µM
IC50 (LNCaP cells [2]): ~82.2 µM
IC50 (PC-3 cells [3]): 95 ± 1.13 µM

COC(=O)CC[C@H](NC(=O)[C@H](CC(C)C)NC(=O)OCc1ccccc1)C(=O)N[C@@H](Cc1c[nH]cn1)C(=O)N[C@@H](CC(=O)OC)C(=O)CF [Z-LEHD-FMK] (Cbz-LE(OMe)HD(OMe)-CH2F)
inhibition of conjugate induced cell death/apoptosis (LNCaP cells [12]): almost completely blocked

Cbz-Val-Ala-Asp-CH2F
inhibition of conjugate induced cell death/apoptosis (LNCaP cells [12]): significant inhibition of cell death
inhibition of conjugate induced cell death (PC-3 cells [13]): significant inhibition of cell death

Z-IETD-FMK: caspase-8 specific inhibitor
inhibition of conjugate induced cell death/apoptosis (LNCaP cells [12]): only partially inhibited
inhibition of conjugate induced cell death (PC-3 cells [13]): completely ineffective
